How the values were obtained:
[1] = system: HS-PSS; experiment: drug sensitivity score (DSS, CellTox-Green cytotoxicity, 72 h) (DSS (dimensionless)); higher = more cytotoxic; extreme values may be limits of the assay
Method in brief: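 For 72 h at 37 °C, MPNST cell lines and primary human Schwann cells were exposed in 384-well plates to five 10-fold compound dilutions. CellTox-Green, added before seeding at a final 1:1000 dilution, gave fluorescence from DNA released by disrupted cells. Signals were scaled to vehicle and positive-control wells, cultures failing plate quality control were left out, and four-parameter logistic fits were applied. Relative IC50 and drug sensitivity score were derived from the fits, with IC50 censored at the top concentration.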

[2] = system: HS-PSS; experiment: drug sensitivity score (DSS, CellTiter-Glo viability, 72 h) (DSS (dimensionless)); higher = more sensitive; extreme values may be limits of the assay
Method in brief: (§1)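 MPNST cell lines and primary human Schwann cells were seeded at 750–1000 cells per well into 384-well plates preprinted with each compound at five concentrations in 10-fold steps, then incubated 72 h at 37 °C, 5% CO2. CellTiter-Glo ATP luminescence gave viability, scaled between vehicle and positive-control wells, with duplicates averaged where present. Curves were fitted with a four-parameter logistic model. Percent inhibition refers to the top concentration, while drug sensitivity score and relative IC50, censored at the top concentration, come from these fits.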

[3] = system: HS-Sch-2; experiment: as above
Method in brief: as §1

[4] = system: YST-1; experiment: as above
Method in brief: as §1

[5] = system: HS-PSS; experiment: % inhibition of CellTiter-Glo viability at highest tested concentration (72 h), relative to DMSO and benzethonium chloride controls; higher = more inhibition
Method in brief: as §1

[6] = system: HS-Sch-2; experiment: as above
Method in brief: as §1

[7] = system: YST-1; experiment: as above
Method in brief: as §1

| Structure (SMILES) | drug sensitivity score [1] | drug sensitivity score [2] | drug sensitivity score [3] | drug sensitivity score [4] | % inhibition [5] | % inhibition [6] | % inhibition [7] |
| --- | --- | --- | --- | --- | --- | --- | --- |
| Cc1ncc(-c2ccnc(Nc3ccc(S(C)(=O)=O)cc3)n2)n1C(C)C [AZD-5438] (max concentration tested 10000 nM) | 0.3 | 12.4 | 8.28 | 9.62 | 72% | 100% | 99.2% |
| NC[C@@](O)(c1ccc(Cl)cc1)c1ccc(-c2cn[nH]c2)cc1 (max concentration tested 10000 nM) | 6.26 | 7.75 | 8.76 | 4.33 | 97.9% | 91.8% | 73.8% |
| OC(CC1c2ccccc2-c2cncn21)C1CCCCC1 (configuration not stated) [NLG919] (max concentration tested 10000 nM) | 0 | 0 | 0 | 0 | 7.55% | 0.68% | 10.1% |
| CN(C[C@@H]1COCCO1)S(=O)(=O)Nc1ccc2ccc3ncc(-c4cnn(C)c4)cc3c(=O)c2c1 [MK-2461] (max concentration tested 10000 nM) | 0 | 0.69 | 2.68 | 6.02 | 25.5% | 55.1% | 67.3% |
| Cc1c(NC(=O)OC[C@@H]2COCCN2)cn2ncnc(Nc3ccc4c(cnn4Cc4cccc(F)c4)c3)c12 (max concentration tested 10000 nM) | 0.6 | 5.43 | 3.4 | 2.68 | 71.3% | 44.4% | 26.8% |
| Nc1nc(N)c2nc(-c3cccc(O)c3)c(-c3cccc(O)c3)nc2n1 [TG100-115] (max concentration tested 10000 nM) | 0 | 0 | 0 | 1.38 | 9.07% | 10.8% | 20.9% |
| COc1cc(N2CCC(N3CCN(C)CC3)CC2)ccc1Nc1ncnc(Nc2ccccc2S(=O)(=O)C(C)C)n1 [ASP3026] (max concentration tested 10000 nM) | 0 | 0 | 0 | 0 | 2.45% | 4.73% | -4.61% |
| CN[C@@H](C)C(=O)N[C@H](C(=O)N1CCC[C@H]1c1nc(C(=O)c2ccc(F)cc2)cs1)C1CCCCC1 [LCL161] (max concentration tested 25000 nM) | 0.11 | 2.18 | 2.38 | 3.14 | 27.8% | 44.2% | 38.7% |
| Cc1nn(C)c(COc2ccc(N3CCN(S(=O)(=O)N(C)C)CC3)cc2)c1-c1cccc2c(CCCOc3cccc4ccccc34)c(C(=O)O)n(CCN3CCOCC3)c12 (max concentration tested 50000 nM) | 1.47 | 4.52 | 5.73 | 6.72 | 90.5% | 101% | 101% |
| CNC(=O)[C@@H](NC(=O)[C@H](CC(C)C)[C@H](O)C(=O)NO)C(C)(C)C [Marimastat] (max concentration tested 10000 nM) | 0 | 0 | 0.33 | 0 | -7.14% | 17.1% | 7.56% |
| OCCn1cc(-c2cnc3nnn(Cc4ccc5ncccc5c4)c3n2)cn1 (max concentration tested 2500 nM) | 0 | 0.05 | 0 | 0.62 | 9.08% | 0.31% | 18.5% |

Reference: the supplement of paper PMC5579334
